Laboratory results published in PubChem BioAssay AID463074 (Broad Institute, 2010).
Calls of active or inactive are those of the source.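 The calls were made as follows: active = AC50 no more than tenfold above the top dose tested, or full inhibition at every dose with a flat fit (cut at about 19 µM in these data); inconclusive = flat curve fit with inhibition between 30% and 70%, or poor fit; inactive = AC50 more than tenfold above the top dose tested.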

Tested on: HMLE_sh_eGFP viability, CellTiter-Glo luminescence, 72 h
Test: viability loss of HMLE_sh_eGFP cells – cell-based, luminescence, counter-screen for HMLE_sh_ECad selective toxicity project, dose response (AID 463074);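 also: counterscreen control line to flag general toxicity for the HMLE_sh_ECad screen; potency for loss of viability as luminescence drops below DMSO wells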

## CCc1ccc(S(=O)(=O)Nc2ccc(O)c3ccccc23)cc1
  AC50: 14.7 µM

## O=C(Nc1ccc(Nc2ccccc2)cc1)c1cccc(F)c1
  AC50: 17.6 µM

## Cc1ccc(C)c(S(=O)(=O)N2CCN(c3ncnc4sccc34)CC2)c1
  AC50: 3.19 µM

## COc1ccccc1/C=C/C=N/n1c(-c2n[nH]c3c2CCC3)n[nH]c1=S
  AC50: 19.7 µM

## Cc1cc(N)n(-c2ccc(S(N)(=O)=O)cc2[N+](=O)[O-])n1
  AC50: > 19.5 µM (inactive)

## O=[N+]([O-])c1ccc(Cl)c([N+](=O)[O-])c1
  AC50: 5.62 µM

## COc1ccc(/C=N/NC(=S)Nc2ccccc2[N+](=O)[O-])cc1O
  AC50: 5.87 µM

## COc1cc(OC)cc(-c2sc3ccc(OC)cc3c2C#CCCO)c1
  AC50: 7.93 µM

## CCC(C)n1ncn(-c2ccc(N3CCN(c4ccc(O)cc4)CC3)cc2)c1=O (configuration not stated)
  AC50: 1.47 µM

## CC(C)C(=O)NC(c1ccccc1)c1cc([N+](=O)[O-])c2cccnc2c1O (configuration not stated)
  AC50: 5.91 µM

## C/C(=N\Nc1cc(N2CCCCC2)nc(C)n1)c1ccc(Br)cc1
  AC50: 5.82 µM

## CCC1CCCCN1S(=O)(=O)c1ccc(S(=O)(=O)N(Cc2ccccn2)CC2CCCO2)cc1 (configuration not stated)
  AC50: 2.49 µM

## CCN(Cc1ccccc1)c1ccc(/C=N/NC(=S)NC(C)C)cc1
  AC50: 4.6 µM

## CCN(CC)S(=O)(=O)c1cccc(C(=O)N/N=C/c2cccc(O)c2O)c1
  AC50: 7.97 µM

## Cc1cc(C)cc(NS(=O)(=O)c2ccc(Oc3ncc(C(F)(F)F)cc3Cl)cc2)c1
  AC50: 4.3 µM

## CCOC(=O)C1=C(N)Oc2cc(O)ccc2C1c1cccc(Cl)c1 (configuration not stated)
  AC50: 4.06 µM

## CCOC(=O)c1c(NC(=O)C2COc3ccccc3O2)sc2c1CC(C)(C)NC2(C)C (configuration not stated)
  AC50: 9.86 µM

## COc1ccc(C(=O)/C=C/c2ccc(N3CCCCC3)c([N+](=O)[O-])c2)c(OC)c1
  AC50: 6.6 µM

## Clc1cc2cccnc2c2ncccc12
  AC50: 3.56 µM

## Cc1ccc(NC2=C(Cl)C(=O)c3ccccc3C2=O)cc1
  AC50: 1.95 µM

## OC(CNCCc1ccc(C(F)(F)F)cc1)COc1cccc2ccccc12 (configuration not stated)
  AC50: 3.54 µM

## Cc1cc(-c2ccccc2)nc2cc(C(=O)N(Cc3ccccc3)Cc3ccccc3)nn12
  AC50: 10.8 µM

## Cc1ccc(-n2nc(C)c3c(C)c(CCC(=O)Nc4ccc(CN5CCCC5)cc4)c(C)nc32)cc1
  AC50: 3.79 µM

## O=C(NC12CC3CC(CC(C3)C1)C2)c1ccc(-c2ccccc2Cl)o1
  AC50: 3.81 µM

## CCCCCCCCCc1nc2sc3c(c2c(=O)n1NC(=O)c1ccccc1[N+](=O)[O-])CC(C)(C)OC3
  AC50: 1.21 µM

## C[C@@H]1CN([C@H](C)CO)C(=O)Cc2cc(NS(=O)(=O)c3ccc(Cl)cc3)ccc2O[C@H]1CN(C)Cc1ccc(C(F)(F)F)cc1
  AC50: 3.18 µM

## COc1ccc(-c2sc3cc4c(cc3c2C#CC2(N)CCCCC2)OCO4)cc1
  AC50: 1.91 µM

## Cc1ccsc1/C=N/NC(=O)c1cc(-c2ccncc2)nc2ccccc12
  AC50: 0.257 µM

## CC(Nc1nc(-c2ccccc2)nc2ccccc12)c1ccccc1 (configuration not stated)
  AC50: 5.38 µM

## COc1ccc(-c2oc3ccc(N4CCOCC4)cc3c2C#CCO)cc1
  AC50: 10.4 µM

## COc1cc(CNCCc2c[nH]c3ccccc23)ccc1OCc1ccc(F)cc1
  AC50: 4.2 µM

## CCOC(=O)Nc1ccc(Cc2ccncc2)cc1
  AC50: > 19.5 µM (inactive)

## Cc1ccc2nc(N(CCCN(C)C)C(=O)c3cc(-c4cccs4)nc4ccccc34)sc2c1
  AC50: 6.4 µM

## O=C(Nc1ccc(Br)cn1)c1cccc(-c2cc3ccccc3oc2=O)c1
  AC50: 12.3 µM

## Cc1ccc(C(=O)ONc2ccc(N=NC(=O)c3ccccc3O)cc2)cc1
  AC50: 3.56 µM

## CCN1CCN(CCCNC(=O)c2ccc3c(c2)NC(=O)/C(=C\c2cccc(C)c2)S3)CC1
  AC50: 3.62 µM

## CC1CC/C(=C\c2ccc3c(c2)OCO3)C(=O)/C1=C/c1ccc2c(c1)OCO2 (configuration not stated)
  AC50: 5.09 µM

## CCOC(=O)c1c(NC(=O)/C=C/c2ccc3c(c2)OCO3)sc(C)c1CC
  AC50: 1.35 µM

## CC(=O)NC(c1ccccc1)c1cc([N+](=O)[O-])c2cccnc2c1O (configuration not stated)
  AC50: 4.02 µM

## CCOC(=O)c1nn(-c2ccc(F)cc2)c(-c2ccccc2)c1C(=O)c1ccccc1
  AC50: 11.8 µM

## C=C(C)COc1ccc(-c2[nH]ncc2-c2ccc(OC)c(OC)c2)c(O)c1
  AC50: 4.5 µM

## Cc1onc(-c2c(Cl)cccc2Cl)c1C(=O)N/N=C(\N)COc1ccc(Cl)cc1
  AC50: 3.8 µM

## COc1cc(NC(=O)c2cc3ccccc3cc2O)c(OC)cc1Cl
  AC50: 1.17 µM

## O=C(CNC(=O)C(c1ccccc1)c1ccccc1)N/N=C/c1ccc(O)cc1O
  AC50: 1.88 µM

## C#CCOCCOCCOCCNc1nc(N2CCN(C(=O)CCCCCCCCCCNC(=O)Cn3cc(C[C@@H](C)O)nn3)CC2)nc(N2CCN(C(=O)CCCCCCCCCCNC(=O)[C@H](CCCCN)n3cc(C[C@@H](C)CC)nn3)CC2)n1
  AC50: 6.8 µM

## Cc1ccccc1CSc1ccc(-c2ccc3c(c2)OCO3)nn1
  AC50: 7.5 µM

## COc1ccc(-c2ccc(C)cc2)cc1[C@H]1[C@@H]2C=CCC[C@@]2(C)C(=O)N1Cc1ccccc1
  AC50: 3.87 µM

## COc1ccc(/C=C/C(=O)Nc2ccc(C34CC5CC(CC(O)(C5)C3)C4)cc2)cc1OC
  AC50: 0.631 µM

## O=S(=O)(Nc1ccc(-c2csc(-c3ccccc3)n2)cc1)c1ccccc1
  AC50: 5.92 µM

## CCc1ccc2c(c1)C1(C(=O)N2)N2CCCC2C(C(=O)c2ccc3ccccc3c2)C12C(=O)Nc1ccccc12 (configuration not stated)
  AC50: 3.69 µM

## CCOC(=O)C(=O)NNc1ccc(Cl)cc1
  AC50: 1.37 µM

## c1ccc(NNC2=NCCCCC2)cc1
  AC50: 2.89 µM

## CCCOc1c(OC)cccc1C1CC(=O)Nc2cc3c(cc21)OCCO3 (configuration not stated)
  AC50: 2.95 µM

## Cn1c(/C(C#N)=C(\O)COc2ccc3ccccc3c2)nc2ccccc21
  AC50: 0.359 µM

## FC(F)(F)c1cccc(NC(=S)N(CCCN2CCCC2)Cc2cccn2Cc2ccc(Cl)cc2)c1
  AC50: 3.51 µM

## CC(C)c1ccc(/C=C/C(=O)NC2=NCCS2)cc1
  AC50: > 19.5 µM (inactive)

## Cc1nc2sccn2c(=O)c1CCN1CCC(=C(c2ccc(F)cc2)c2ccc(F)cc2)CC1
  AC50: 5.23 µM

## O=C(NC(=S)Nc1cccc(Cl)c1N1CCCCC1)c1ccc2c(c1)OCCO2
  AC50: 1.52 µM

## CC1(C)C(=O)N(c2ccccc2)C1c1ccccc1O (configuration not stated)
  AC50: 3.25 µM

## CC(C)N1C(=O)/C(=C\c2nc3ccccc3c(=O)n2-c2ccccc2)c2ccccc21
  AC50: 9.85 µM

## COc1cc(NC(=O)Nc2cccc(Cl)c2)c(OC)cc1NC(=O)CN1CCCCC1
  AC50: 4.3 µM

## O=C(CN1CCCC1)Nc1ccc(Cl)cc1C(=O)c1ccccc1
  AC50: 15.3 µM

## Cc1cc(N/N=C/c2ccccc2Cl)nc(NCc2ccccc2)n1
  AC50: 4.04 µM

## OC(CN1CCCCC1)Cn1c2ccc(Cl)cc2c2cc(Cl)ccc21 (configuration not stated)
  AC50: 7.56 µM

## CCc1ccc(N=Nc2ccc(O)c3[nH]cnc23)cc1
  AC50: 2.06 µM

## CCOC(=O)/C(=N/Nc1ccccc1)c1csc(Nc2ccccc2)n1
  AC50: 3.69 µM

## O=C(Nc1ccc(Br)c(C(F)(F)F)c1)c1ccc(C(F)(F)F)cc1
  AC50: 3.03 µM

## CCCCCCSc1nsc(NC(=O)CC(C)C)n1
  AC50: 9.2 µM

## CCCOc1ccc(-c2nc(N3CCN(CC)CC3)c3ccccc3n2)cc1
  AC50: 6.44 µM

## Cc1cc([N+](=O)[O-])nn1Cc1ccc(C(=O)N/N=C/c2ccc(O)cc2O)cc1
  AC50: 2.25 µM

## N#CC1=C(SCC(=O)c2ccc(Br)cc2)NC2=C(C(=O)CCC2)C1c1ccco1 (configuration not stated)
  AC50: 2.21 µM

## O=C(CCN1Cc2ccccc2C1)c1ccc2c(c1)OCCO2
  AC50: 15.1 µM

## O=C(NC(=S)Nc1cccc(Cl)c1N1CCCCC1)c1ccco1
  AC50: 3.81 µM

## Oc1ccc(N=Nc2nc(-c3ccccc3)c(-c3ccccc3)[nH]2)cc1
  AC50: 4.53 µM

## COC(=O)c1ccc(/C=C/c2c(-c3ccc(OC)cc3)oc3ccc(N4CCOCC4)cc23)cc1
  AC50: 4.19 µM

## O=C(CCC1CCCC1)Nc1ccc(C(=O)NCc2cccnc2)cc1
  AC50: 1.04 µM

## COc1ccc(N(CC(=O)Nc2cc(C)ccc2C)S(=O)(=O)c2c(C)noc2C)cc1
  AC50: > 19.5 µM (inactive)

## CCOC(=O)c1c(NC(=O)c2nn(CC)cc2Br)sc2c1CCCCC2
  AC50: 1.95 µM

## COc1cccc(/C=N/Nc2ncnc(Cl)c2N)c1O
  AC50: 3.29 µM

## CC(C)(C)c1ccc(C(=O)CC(Sc2ccc(Cl)cc2)C(=O)O)cc1 (configuration not stated)
  AC50: 9.07 µM

## CCCc1cc(-c2nc(-c3ccc(C)cc3)cs2)ccn1
  AC50: 5.16 µM

## CCC1CSC(Nc2ccc(C(=O)/C=C/c3cccc(C)c3)cc2)=N1 (configuration not stated)
  AC50: 5.56 µM

## CCOC(=O)C(=Cc1ccc(OCc2ccc([N+](=O)[O-])cc2)c(OC)c1)C(=O)OCC
  AC50: 3.03 µM

## O=C(Nc1ccc2c(c1)OCO2)c1cc(-c2ccc(O)cc2)on1
  AC50: 1.33 µM

## CC1CCCN(CCCOc2ccc(Br)cc2Cl)C1 (configuration not stated)
  AC50: 8.36 µM

## CNc1nc(SCc2ccccc2Cl)nc2c1CCCC2
  AC50: 8.77 µM

## O=C(Nc1ccc(OC(F)F)c(Cl)c1)Nc1ccc2c(c1)OCO2
  AC50: 3.14 µM

## CC(C)(C)c1cc(C(=O)NNc2cc(C(F)(F)F)ccc2Cl)n(Cc2ccccc2)n1
  AC50: 4.18 µM

## COc1cccc(/C=N/NC(=O)c2[nH]c(C)c(C(=O)N/N=C/c3cccc(OC)c3O)c2C)c1O
  AC50: 4.53 µM

## C=CCn1c(O)c(C2=c3ccccc3=NC2=O)c2ccccc21
  AC50: 7.4 µM

## Cc1cc(N2CCN(C)CC2)nc2ccc(NC(=S)NCCC(C)C)cc12
  AC50: 7.91 µM

## O=C(O)CCN1C(=O)C(=C2CCCCCC2)SC1=S
  AC50: > 19.5 µM (inactive)

## Nc1nc(Cl)nc2c1ncn2[C@H]1C[C@H](O)[C@@H](CO)O1
  AC50: 0.318 µM

## COc1cc(N/N=C(\C)c2ccc(O)c(C)c2)nc(-c2ccccc2)n1
  AC50: 4.75 µM

## O=c1cc(N2CCCCC2)c(-c2ccccc2)nn1Cc1cccc(F)c1
  AC50: 5.13 µM

## CC(=O)Oc1c(Cl)cc(Cl)cc1/C=C/c1ccc2ccccc2n1
  AC50: 2.86 µM

## CSc1nc2ccccc2cc1/C=C(\C#N)c1cccc(Cl)c1
  AC50: 2.73 µM

## CCCc1cc(-c2nc(-c3ccc(Cl)cc3)cs2)ccn1
  AC50: 13 µM

## Cc1nn(-c2ccccc2)c(C)c1/C=N/n1c(-c2ccc(C(C)(C)C)cc2)n[nH]c1=S
  AC50: 6.74 µM

## COc1ccc(Nc2nc(-c3cccc([N+](=O)[O-])c3)nc3ccccc23)cc1
  AC50: 17.8 µM

## O=c1c2ccccc2nc(/C=C/c2ccc(Br)cc2)n1CCO
  AC50: 16.6 µM

## COC(=O)C1C(=O)C2=C(CC1C)NC(=O)CC2c1cccc(C)c1 (configuration not stated)
  AC50: > 19.5 µM (inactive)

## Cc1ccc(-n2nnnc2Sc2ccc(S(=O)(=O)NCCN(C)C)cc2[N+](=O)[O-])cc1
  AC50: 6.72 µM

## O=C(/C=C/c1ccc(Cl)c([N+](=O)[O-])c1)c1ccc(O)cc1
  AC50: 3.72 µM

## Cc1cc(C(C)(C)C)c(OC(=O)[C@@H]2OC(c3ccccc3)=C[C@H]2c2ccccc2)c(C(C)(C)C)c1
  AC50: 7.77 µM

## O=C(CCc1ccccc1)Nc1sc2c(c1C(=O)O)CCCC2
  AC50: > 19.5 µM (inactive)

## Cc1cc(NCCCn2ccnc2)n2nc(C)c(-c3ccc(Cl)cc3)c2n1
  AC50: 6.46 µM
